“Also recorded” adds a separate entry of the source.
Key:
[1] = biological target: T1, CYP1A2 (Homo sapiens, UniProt P05177); assay: CYP enzyme fluorometric activity measurement, human hepatic microsomes; conditions: inhibitor 50 µM, human microsomes, 15 min; p > 0.05
T1 sequence (P05177 1-516): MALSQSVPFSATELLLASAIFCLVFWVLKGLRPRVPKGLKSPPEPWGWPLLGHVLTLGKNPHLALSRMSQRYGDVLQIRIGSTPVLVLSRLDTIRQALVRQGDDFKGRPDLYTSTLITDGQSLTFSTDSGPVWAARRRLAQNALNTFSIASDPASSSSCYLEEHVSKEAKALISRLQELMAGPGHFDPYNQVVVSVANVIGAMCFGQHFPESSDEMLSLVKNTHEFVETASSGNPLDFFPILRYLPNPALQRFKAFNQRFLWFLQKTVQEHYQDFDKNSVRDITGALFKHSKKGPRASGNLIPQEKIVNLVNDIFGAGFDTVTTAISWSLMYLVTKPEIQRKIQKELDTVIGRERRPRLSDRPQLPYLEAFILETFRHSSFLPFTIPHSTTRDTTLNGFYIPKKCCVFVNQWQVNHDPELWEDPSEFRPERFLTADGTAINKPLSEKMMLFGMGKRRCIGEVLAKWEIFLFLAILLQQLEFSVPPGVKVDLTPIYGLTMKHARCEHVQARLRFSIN
Protocol: (§1) The Biovision CYP assays (BioVision, Inc., Kampenhout, Belgium) employ non-fluorescent CYP2D6, 2C9, 2C19, 1A2, or 3A4 substrates able to undergo transformation into highly fluorescent detectable metabolites. […] Human hepatic microsomal supernatants were prepared (Gibco, Biocentre, Szeged, Hungary protein concentration: 20 mg/mL) separately by mixing 30 µL with 2425 µL assay buffer and with 50 µL nicotinamide adenine dinucleotide phosphate (NADPH) generating system (100×). […] Control measurements were performed in the absence of the inhibitors.
(§2) In background controls, only assay buffer excluding microsomes and test compounds was used in a volume of 70 µL. Subsequently, after incubation at 37 °C for 15 min, 30 µL of the suitable CYP substrate/NADP+ mixture was incorporated into each well, resulting in a final reaction volume of 100 µL/well. The obtained microsomal protein content was assessed using the bicinchoninic acid protein assay kit (Pierce BCA kit, Thermo Fisher Scientific, Waltham, MA, USA). In each assay, the microsomal protein concentration was calibrated to 100 µg/well. The fluorescence intensities were measured with a fluorometer (Victor X2 2030, Perkin Elmer, Waltham, MA, USA) using λex/em = 406/468 nm for CYP1A2 and for CYP2C19, λex/em = 415/502 nm for CYP2C9, λex/em = 390/468 nm for CYP2D6, and λex/em = 535/587 nm for CYP3A4 assays.

[2] = biological target: CYP3A4 (Homo sapiens, UniProt P08684); assay: as above; conditions: human microsomal preparations, 15 min, 37 °C, p < 0.0001
Protocol: as §1, §2

[3] = test system: primary porcine hepatocytes; assay: Cell viability, Neutral red assay; assay type: cell-based; conditions: S. suis 10^4 CFU/mL in combination with inhibitor 50 µM, 24 h
Protocol: Porcine cryopreserved primary hepatocytes were obtained from Primacyt Cell Culture Company (Schwerin, Germany). Lonza Group Ltd. (Biocenter Ltd., Szeged, Hungary) supplied the thawing, plating, and maintenance media. The cytotoxic effects of inhibitors MI-432, MI-471, and MI-476 were tested on the viability of primary hepatocytes using the NR method. The hepatocytes were cultivated on a 96-well plate for 24 h, followed by incubation with the inhibitors at 0, 50, and 100 µM for an additional 24 h. Only cell maintenance medium was used to incubate the control cells. The plate underwent incubation together with NR dye for 2 h. Hepatocyte viability was recorded at 540 nm with a SpectraMax iD3 microplate reader.

CYP3A4, sequence (P08684 whole entry): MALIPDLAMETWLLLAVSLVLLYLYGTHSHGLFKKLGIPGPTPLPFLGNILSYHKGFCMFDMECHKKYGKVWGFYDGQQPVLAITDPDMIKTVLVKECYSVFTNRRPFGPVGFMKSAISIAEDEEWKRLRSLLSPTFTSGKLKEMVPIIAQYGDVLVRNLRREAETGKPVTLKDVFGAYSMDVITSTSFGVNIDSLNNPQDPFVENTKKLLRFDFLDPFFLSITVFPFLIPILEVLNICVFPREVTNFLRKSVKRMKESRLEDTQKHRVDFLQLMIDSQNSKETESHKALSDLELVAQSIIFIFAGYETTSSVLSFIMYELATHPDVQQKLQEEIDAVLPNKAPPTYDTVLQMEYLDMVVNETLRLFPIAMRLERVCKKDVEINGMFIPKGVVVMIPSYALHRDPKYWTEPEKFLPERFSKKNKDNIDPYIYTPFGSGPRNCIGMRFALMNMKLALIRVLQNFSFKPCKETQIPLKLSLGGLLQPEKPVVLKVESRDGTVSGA

Row | SMILES | CYP1A2 activity [1] | CYP3A4 isoenzyme activity ([2]; inhibitor 10 µM) | CYP3A4 isoenzyme activity ([2]; inhibitor 25 µM) | CYP3A4 isoenzyme activity ([2]; inhibitor 50 µM) | cell viability [3]
1 | N=C(N)c1cccc(C[C@H](NS(=O)(=O)c2cccc(-c3ccc(Cl)cc3Cl)c2)C(=O)N2CCC(N)CC2)c1 [MI-471] | No significant inhibitory effects | mitigated | mitigated | mitigated | 
2 | N=C(N)c1cccc(C[C@H](NS(=O)(=O)c2cccc(-c3ccc(Cl)cc3Cl)c2)C(=O)N2CCC(CN)CC2)c1 [MI-476] | No significant inhibitory effects | mitigated | mitigated | mitigated | did not deteriorate cell viability; also recorded: effectively suppressed
